Laboratory results taken from US20240383852A1, “ANTI-VIRAL COMPOUNDS” (INFEX Therapeutics Limited, priority 2021, published 2024).

How the values were obtained:
[1] = biological target: T1, SARS-CoV-2 PLpro (Severe acute respiratory syndrome coronavirus 2, UniProt P0DTD1); test: biochemical; conditions: 60 nM papain-like protease, 50 μM Z-RLRGG-AMC, pH 7.5, 37° C.; read-out: SARS-CoV-2 PLpro IC50
T1 construct: containing 60 nM papain-like protease

[2] = test system: human Hep G2 cells (ATCC HB-8065); test: Cytotoxicity in Hep G2 cells (CellTiter-Glo); type: cell-based; conditions: Hep G2 cells, 100 μM test article, 24-hour exposure

COc1ccc(Br)cc1[C@@H](C)NC(=O)c1cc(N2CCN(C)CC2)ccc1C [Example 195, N-[(1R)-1-(5-Bromo-2-methoxy-phenyl)ethyl]-2-methyl-5-(4-methylpiperazin-1-yl)benzamide]
IC50 [1]: < 2000 nM
% Cell Viability [2]: 41.5%

Cc1ccc([C@@H](C)NC(=O)c2cc(N3CCN(C)CC3)ccc2C)cc1Br [Example 196, N-[(1R)-1-(3-Bromo-4-methyl-phenyl)ethyl]-2-methyl-5-(4-methylpiperazin-1-yl)benzamide]
IC50 [1]: < 2000 nM
% Cell Viability [2]: 4.7%

Cc1ccc(N2CCN(C)CC2)cc1C(=O)N[C@H](C)c1cc(F)cc(Br)c1 [Example 197, N-[(1R)-1-(3-Bromo-5-fluoro-phenyl)ethyl]-2-methyl-5-(4-methylpiperazin-1-yl)benzamide]
IC50 [1]: < 2000 nM
% Cell Viability [2]: 44.7%

COc1cc(Br)cc([C@@H](C)NC(=O)c2cc(N3C[C@H]4C[C@@H]3CN4C)ccc2C)c1 [Example 198, N-[(1R)-1-(3-Bromo-5-methoxy-phenyl)ethyl]-2-methyl-5-[(1R,4R)-5-methyl-2,5-diazabicyclo[2.2.1]heptan-2-yl]benzamide]
IC50 [1]: < 2000 nM
% Cell Viability [2]: 1.6%

COc1cc(Br)cc([C@@H](C)NC(=O)c2cc(N3CC4CN(C)CC4C3)ccc2C)c1 (stereo partly drawn) [Example 199, N-[(1R)-1-(3-Bromo-5-methoxy-phenyl)ethyl]-2-methyl-5-(2-methyl-1,3,3a,4,6,6a-hexahydropyrrolo[3,4-c]pyrrol-5-yl)benzamide]
IC50 [1]: < 2000 nM
% Cell Viability [2]: 0.7%

COc1cc(Br)cc([C@@H](C)NC(=O)c2cc(N3CCN4CCCC4C3)ccc2C)c1 (stereo partly drawn) [Example 200, 5-(3,4,6,7,8,8a-Hexahydro-1H-pyrrolo[1,2a]pyrazin-2-yl)-N-[(1R)-1-(3-bromo-5-methoxy-phenyl)ethyl]-2-methyl-benzamide]
IC50 [1]: < 2000 nM
% Cell Viability [2]: 24.3%

Cc1ccc(N2CCN(C)CC2)cc1C(=O)N[C@H](C)c1ccc(Cl)c(Br)c1 [Example 201, N-[(1R)-1-(3-Bromo-4-chloro-phenyl)ethyl]-2-methyl-5-(4-methylpiperazin-1-yl)benzamide]
IC50 [1]: < 2000 nM
% Cell Viability [2]: 1.0%

COc1cc(OC)c([C@@H](C)NC(=O)c2cc(N3CCN(C)CC3)ccc2C)cc1Br [Example 202, N-[(1R)-1-(5-Bromo-2,4-dimethoxy-phenyl)ethyl]-2-methyl-5-(4-methylpiperazin-1-yl)benzamide]
IC50 [1]: < 5000 nM
% Cell Viability [2]: 72.5%

COc1ccc([C@@H](C)NC(=O)c2cc(N3CCN(C)CC3)ccc2C)cc1-c1ccccc1 [Example 203, N-[(1R)-1-(4-Methoxy-3-phenyl-phenyl)ethyl]-2-methyl-5-(4-methylpiperazin-1-yl)benzamide]
IC50 [1]: < 2000 nM
% Cell Viability [2]: 0.9%

COc1ccc([C@@H](C)NC(=O)c2cc(N3CCN(C)CC3)ccc2C)cc1-c1cccc(C(C)(C)O)c1 [Example 204, N-[(1R)-1-[3-[3-(1-Hydroxy-1-methyl-ethyl)phenyl]-4-methoxy-phenyl]ethyl]-2-methyl-5-(4-methylpiperazin-1-yl)benzamide]
IC50 [1]: < 2000 nM
% Cell Viability [2]: 81.4%

COc1ccc([C@@H](C)NC(=O)c2cc(N3CCN(C)CC3)ccc2C)cc1-c1ccsc1 [Example 206, N-[(1R)-1-[4-Methoxy-3-(3-thienyl)phenyl]ethyl]-2-methyl-5-(4-methylpiperazin-1-yl)benzamide]
IC50 [1]: < 2000 nM
% Cell Viability [2]: 0.8%

COc1ccc([C@@H](C)NC(=O)c2cc(N3CCN(C)CC3)ccc2C)cc1-c1ccn(C)n1 [Example 207, N-[(1R)-1-[4-Methoxy-3-(1-methylpyrazol-3-yl)phenyl]ethyl]-2-methyl-5-(4-methylpiperazin-1-yl)benzamide]
IC50 [1]: < 2000 nM
% Cell Viability [2]: 103.7%
